According to patent US12661410B2, “Compounds for targeted degradation of RET” (C4 Therapeutics, Inc., priority 2020, dated 2026):
Numbering of substitutions follows the chain as printed. Where two headings read alike, the source gives them in different places.

Key:
RET(KD: 658-1114 G810R) = biological target: T1, RET(KD: 658-1114 G810R) (Homo sapiens, UniProt P07949, G810R); assay: HiBiT-Degradation, RET G810R degradation assay (Nano-Glo HiBiT Lytic), 293T.165 cells; type: cell-based; conditions: for Emax / DC50: 6.0 hours
T1 construct: 658-1114; expressed in transfected cells; host or cells: 293T.165 (293T cells, generated in-house)
T1 sequence (P07949 658-1114 G810R): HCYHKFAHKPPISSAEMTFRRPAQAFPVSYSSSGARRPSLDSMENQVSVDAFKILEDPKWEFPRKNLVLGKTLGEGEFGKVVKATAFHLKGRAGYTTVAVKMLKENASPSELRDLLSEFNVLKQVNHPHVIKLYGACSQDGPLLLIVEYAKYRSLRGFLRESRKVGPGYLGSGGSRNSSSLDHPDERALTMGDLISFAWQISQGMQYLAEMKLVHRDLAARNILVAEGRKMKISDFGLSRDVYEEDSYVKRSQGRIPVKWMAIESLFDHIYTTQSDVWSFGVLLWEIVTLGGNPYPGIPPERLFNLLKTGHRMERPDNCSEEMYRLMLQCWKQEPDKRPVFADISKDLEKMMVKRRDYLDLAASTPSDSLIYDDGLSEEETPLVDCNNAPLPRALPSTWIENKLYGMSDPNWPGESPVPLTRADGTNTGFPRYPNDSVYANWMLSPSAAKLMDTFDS
How it was run: (§1)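 Degradation quantified by HiBiT lytic luminescence in 293T cells expressing tagged WT or G810R RET kinase domain after 6 h dosing up to 10 μM; DC50 and Emax fitted.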

RET (658-1114) = biological target: T2, RET (658-1114) (Homo sapiens, UniProt P07949); assay: HiBiT-Degradation, RET wild-type degradation assay (Nano-Glo HiBiT Lytic), 293T.144 cells; type: cell-based; conditions: for DC50 / Emax: 6.0 hours
T2 construct: 658-1114; expressed in transfected cells; host or cells: 293T.144 (293T cells, generated in-house)
T2 sequence (P07949 658-1114): T1 sequence (P07949 658-1114 G810R) with R153G
How it was run: as §1

[1] = % remaining protein, read-out: 293T.165 RET(KD: 658-1114 G810R) 6.0 hours (Emax)
[2] = half-maximal degradation concentration, read-out: 293T.165 RET(KD: 658-1114 G810R) 6.0 hours (DC50)
[3] = RET G810R, read-out: HiBiT-Degradation 293T.165 RET(KD: 658-1114 G810R) 6.0 hours (DC50)
[4] = RET G810R, read-out: HiBiT-Degradation 293T.165 RET(KD: 658-1114 G810R) 6.0 hours (Emax)
[5] = RET wild-type, read-out: HiBiT-Degradation 293T.144 RET (658-1114) 6.0 hours (DC50)
[6] = RET wild-type, read-out: HiBiT-Degradation 293T.144 RET (658-1114) 6.0 hours (Emax)
[7] = % remaining protein, read-out: 293T.144 RET (658-1114) 6.0 hours (Emax)
[8] = half-maximal degradation concentration, read-out: 293T.144 RET (658-1114) 6.0 hours (DC50)

| Structure (SMILES) | Emax (RET(KD: 658-1114 G810R); [1]) [%] | DC50 (RET(KD: 658-1114 G810R); [2]) [nM] | HiBiT-Degradation 293T.165 RET(KD: 658-1114 G810R) 6.0 hours (IP) [nM] (RET(KD: 658-1114 G810R); RET G810R) | DC50 (RET(KD: 658-1114 G810R); [3]) [nM] | Emax (RET(KD: 658-1114 G810R); [4]) [%] | HiBiT-Degradation 293T.144 RET (658-1114) 6.0 hours (IP) [nM] (RET (658-1114); RET wild-type) | DC50 (RET (658-1114); [5]) [nM] | Emax (RET (658-1114); [6]) [%] | 293T.165 RET(KD: 658-1114 G810R) 6.0 hours (IP) [nM] (RET(KD: 658-1114 G810R)) | 293T.144 RET (658-1114) 6.0 hours (IP) [nM] (RET (658-1114)) | Emax (RET (658-1114); [7]) [%] | DC50 (RET (658-1114); [8]) [nM] |
| --- | --- | --- | --- | --- | --- | --- | --- | --- | --- | --- | --- | --- |
| CC(C)NC(=O)C1(C)CCN(c2ccc(-c3cc(-c4cnn([C@H]5CC[C@H](CCN6CCC(c7ccc8c(N9CCC(=O)NC9=O)nn(C)c8c7)CC6)CC5)c4)cn4ncc(C#N)c34)cn2)CC1 [Compound 86, 1-[5-[3-cyano-6-[1-[(1r,4r)-4-[2-[4-[3-(2,4-dioxohexahydropyrimidin-1-yl)-1-methyl-indazol-6-1]-1-piperidyl]ethyl]cyclohexyl]pyrazol-4-yl]pyrazolo[1,5-a]pyridin-4-yl]-2-pyridyl]-N-isopropyl-4-methyl-piperidine-4-carboxamide] | < 30 | < 100 | ++++ (< 50 nM = ++++) | < 100 | < 30 | ++++ (< 50 nM = ++++) | < 50 | < 30 |  |  |  |  |
| CCC1(C(=O)NC(C)C)CCN(c2ccc(-c3cc(-c4cnn([C@H]5CC[C@@H](N6CCC(c7ccc(NC8CCC(=O)NC8=O)cc7F)CC6)CC5)c4)cn4ncc(C#N)c34)cn2)CC1 (stereo partly shown) [Compound 88, 1-(5-(3-cyano-6-(1-((1s, 4s)-4-(4-(4-((2,6-dioxopiperidin-3-yl)amino)-2-fluorophenyl)piperidin-1-yl)cyclohexyl)-1H-pyrazol-4-yl)pyrazolo[1,5-a]pyridin-4-yl)pyridin-2-yl)-4-ethyl-N-isopropylpiperidine-4-carboxamide] | < 50 | < 1000 | ++++ (< 50 nM = ++++) | < 1000 | < 50 | ++++ (< 50 nM = ++++) | < 50 | < 30 |  |  |  |  |
| CCC1(C(=O)NC(C)C)CCN(c2ccc(-c3nc(-c4cnn(C5CCN(C(=O)Cc6ccc(-c7ccc(NC8CCC(=O)NC8=O)cc7F)cc6)CC5)c4)cn4ncc(C#N)c34)cn2)CC1 (stereo not shown) [Compound 89, 1-[5-[3-cyano-6-[1-[1-[2-[4-[4-[(2,6-dioxo-3-piperidyl)amino]-2-fluoro-phenyl]phenyl]acetyl]-4-piperidyl]pyrazol-4-yl]pyrazolo[1,5-a]pyrazin-4-yl]-2-pyridyl]-4-ethyl-N-isopropyl-piperidine-4-carboxamide] | < 50 | < 100 |  |  |  |  |  |  | ++++ (<50 nM = ++++) | ++++ (<50 nM = ++++) | < 30 | < 50 |
| CCC1(C(=O)NC(C)C)CCN(c2ccc(-c3nc(-c4cnn(C5CCN(C(=O)CC6(O)CCN(c7cc(OC)c(NC8CCC(=O)NC8=O)cc7Cl)CC6)CC5)c4)cn4ncc(C#N)c34)cn2)CC1 (stereo not shown) [Compound 90, 1-[5-[6-[1-[1-[2-[1-[2-chloro-4-[(2,6-dioxo-3-piperidyl)amino]-5-methoxy-phenyl]-4-hydroxy-4-piperidyl]acetyl]-4-piperidyl]pyrazol-4-yl]-3-cyano-pyrazolo[1,5-a]pyrazin-4-yl]-2-pyridyl]-4-ethyl-N-isopropyl-piperidine-4-carboxamide] | < 30 | < 50 |  |  |  |  |  |  | ++++ (<50 nM = ++++) | ++++ (<50 nM = ++++) | < 30 | < 50 |
| CCC1(C(=O)NC(C)C)CCN(c2ccc(-c3nc(-c4cnn(C5CCN(C(=O)CC6(O)CCN(c7cc(OC)c(NC8CCC(=O)NC8=O)cc7F)CC6)CC5)c4)cn4ncc(C#N)c34)cn2)CC1 (stereo not shown) [Compound 91, 1-[5-[3-cyano-6-[1-[1-[2-[1-[4-[(2,6-dioxo-3-piperidyl)amino]-2-fluoro-5-methoxy-phenyl]-4-hydroxy-4-piperidyl]acetyl]-4-piperidyl]pyrazol-4-yl]pyrazolo[1,5-a]pyrazin-4-yl]-2-pyridyl]-4-ethyl-N-isopropyl-piperidine-4-carboxamide] | < 30 | < 50 |  |  |  |  |  |  | ++++ (<50 nM = ++++) | ++++ (<50 nM = ++++) | < 30 | < 50 |
| CCC1(C(=O)NC(C)C)CCN(c2ccc(-c3nc(-c4cnn(C5CCN(C(=O)CN6C7CCC6CC(c6ccc(NC8CCC(=O)NC8=O)cc6F)C7)CC5)c4)cn4ncc(C#N)c34)cn2)CC1 (stereo not shown) [Compound 94, 1-[5-[3-cyano-6-[1-[1-[2-[3-[4-[(2,6-dioxo-3-piperidyl)amino]-2-fluoro-phenyl]-8-azabicyclo[3.2.1]octan-8-yl]acetyl]-4-piperidyl]pyrazol-4-yl]pyrazolo[1,5-a]pyrazin-4-yl]-2-pyridyl]-4-ethyl-N-isopropyl-piperidine-4-carboxamide] | < 30 | < 50 |  |  |  |  |  |  | ++++ (<50 nM = ++++) | ++++ (<50 nM = ++++) | < 30 | < 50 |

Further lines, results first:

| Emax (RET(KD: 658-1114 G810R); [1]) [%] | DC50 (RET(KD: 658-1114 G810R); [2]) [nM] | HiBiT-Degradation 293T.165 RET(KD: 658-1114 G810R) 6.0 hours (IP) [nM] (RET(KD: 658-1114 G810R); RET G810R) | DC50 (RET(KD: 658-1114 G810R); [3]) [nM] | Emax (RET(KD: 658-1114 G810R); [4]) [%] | HiBiT-Degradation 293T.144 RET (658-1114) 6.0 hours (IP) [nM] (RET (658-1114); RET wild-type) | DC50 (RET (658-1114); [5]) [nM] | Emax (RET (658-1114); [6]) [%] | 293T.165 RET(KD: 658-1114 G810R) 6.0 hours (IP) [nM] (RET(KD: 658-1114 G810R)) | 293T.144 RET (658-1114) 6.0 hours (IP) [nM] (RET (658-1114)) | Emax (RET (658-1114); [7]) [%] | DC50 (RET (658-1114); [8]) [nM] | Structure (SMILES) |
| --- | --- | --- | --- | --- | --- | --- | --- | --- | --- | --- | --- | --- |
| < 30 | < 100 |  |  |  |  |  |  | ++++ (<50 nM = ++++) | ++++ (<50 nM = ++++) | < 30 | < 50 | CCC1(C(=O)NC(C)C)CCN(c2ccc(-c3nc(-c4cnn(C5CCN(C(=O)CC6(OC)CCN(c7ccc(NC8CCC(=O)NC8=O)cc7F)CC6)CC5)c4)cn4ncc(C#N)c34)cn2)CC1 (stereo not shown) [Compound 92, 1-[5-[3-cyano-6-[1-[1-[2-[1-[4-[(2,6-dioxo-3-piperidyl)amino]-2-fluoro-phenyl]-4-methoxy-4-piperidyl]acetyl]-4-piperidyl]pyrazol-4-yl]pyrazolo[1,5-a]pyrazin-4-yl]-2-pyridyl]-4-ethyl-N-isopropyl-piperidine-4-carboxamide] |
| < 30 | < 50 |  |  |  |  |  |  | ++++ (<50 nM = ++++) | ++++ (<50 nM = ++++) | < 30 | < 50 | CCC1(C(=O)NC(C)C)CCN(c2ccc(-c3nc(-c4cnn(C5CCN(C(=O)CC6(O)CCN(c7ccc(NC8CCC(=O)NC8=O)cc7Br)CC6)CC5)c4)cn4ncc(C#N)c34)cn2)CC1 (stereo not shown) [Compound 95, 1-[5-[6-[1-[1-[2-[1-[2-bromo-4-[(2,6-dioxo-3-piperidyl)amino]phenyl]-4-hydroxy-4-piperidyl]acetyl]-4-piperidyl]pyrazol-4-yl]-3-cyano-pyrazolo[1,5-a]pyrazin-4-yl]-2-pyridyl]-4-ethyl-N-isopropyl-piperidine-4-carboxamide] |
| < 50 | < 100 |  |  |  |  |  |  | +++ (<100 nM = +++) | ++++ (<50 nM = ++++) | < 30 | < 50 | CCC1(C(=O)NC(C)C)CCN(c2ccc(-c3nc(-c4cnn(C5CCN(C(=O)CC6(O)CCN(c7ccc(NC8CCC(=O)NC8=O)cc7C(F)F)CC6)CC5)c4)cn4ncc(C#N)c34)cn2)CC1 (stereo not shown) [Compound 96, 1-[5-[3-cyano-6-[1-[1-[2-[1-[2-(difluoromethyl)-4-[(2,6-dioxo-3-piperidyl)amino]phenyl]-4-hydroxy-4-piperidyl]acetyl]-4-piperidyl]pyrazol-4-yl]pyrazolo[1,5-a]pyrazin-4-yl]-2-pyridyl]-4-ethyl-N-isopropyl-piperidine-4-carboxamide] |
